pIC50: −log10 of the molar value.
Assays:
Assay in all cases: FRET-Based RNase H Assay
Settings in all cases: pH 8; 20 °C
Ribonuclease H1 = molecular target: T1, Ribonuclease H1 (Homo sapiens, UniProt O60930)
T1 sequence (O60930 whole entry): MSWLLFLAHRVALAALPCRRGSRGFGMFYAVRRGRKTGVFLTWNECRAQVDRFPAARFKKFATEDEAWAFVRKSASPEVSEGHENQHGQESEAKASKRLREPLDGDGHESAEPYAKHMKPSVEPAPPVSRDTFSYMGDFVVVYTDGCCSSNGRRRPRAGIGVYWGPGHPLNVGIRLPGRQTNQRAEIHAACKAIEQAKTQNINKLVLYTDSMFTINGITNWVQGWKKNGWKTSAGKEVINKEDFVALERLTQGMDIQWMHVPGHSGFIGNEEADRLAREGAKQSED
Procedure: (§1) RNaseH assays were performed using an 18-nucleotide 3-fluorescein-labeled RNA annealed to a complementary 18-nucleotide 5-dabcyl conjugated DNA. The increase in fluorescence as a result of RNase H hydrolysis was monitored with a Spectramax Gemini EM fluorescence spectrometer. Data were analyzed using the instrument manufacturer SoftMax pro software. To determine IC50 values, the slope of the curve representing the time dependent increase in fluorescence was determined at 10 min, when initial rate conditions are met and substrate depletion is not significant. The slope values were plotted against the logarithm of the inhibitor concentrations, and IC50 values were determined using SigmaPlot software.

[1] = molecular target: T2, Gag-Pol polyprotein [600-1029,C879S]/[600-1159,C879S] (Human immunodeficiency virus 1, UniProt P03366, C879S)
T2 construct: 600-1029; 600-1159
Procedure: as §1

[2] = molecular target: T3, Gag-Pol polyprotein [613-1167,R896S,E946D,S1117V]/[618-1043,R896S,E946D] (Human immunodeficiency virus 2, UniProt P04584, E946D/R896S/S1117V)
T3 construct: 613-1167; 618-1043
T3 sequence (P04584 613-1167, looked up, stated change not applied): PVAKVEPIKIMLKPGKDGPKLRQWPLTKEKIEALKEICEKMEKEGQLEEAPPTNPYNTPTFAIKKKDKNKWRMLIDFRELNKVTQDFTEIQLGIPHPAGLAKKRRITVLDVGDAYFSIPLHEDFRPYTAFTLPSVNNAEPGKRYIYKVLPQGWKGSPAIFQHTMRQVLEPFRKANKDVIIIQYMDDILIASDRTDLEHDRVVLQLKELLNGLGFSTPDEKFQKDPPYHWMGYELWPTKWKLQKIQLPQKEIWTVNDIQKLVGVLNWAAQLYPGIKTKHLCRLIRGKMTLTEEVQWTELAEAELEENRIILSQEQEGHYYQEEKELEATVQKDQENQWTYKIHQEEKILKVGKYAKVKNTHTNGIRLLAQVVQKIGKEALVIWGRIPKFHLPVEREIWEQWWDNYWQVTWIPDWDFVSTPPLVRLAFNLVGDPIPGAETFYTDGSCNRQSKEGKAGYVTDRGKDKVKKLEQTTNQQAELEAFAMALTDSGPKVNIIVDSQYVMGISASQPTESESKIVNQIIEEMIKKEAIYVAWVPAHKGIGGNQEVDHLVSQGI
T3 sequence (P04584 618-1043, looked up, stated change not applied): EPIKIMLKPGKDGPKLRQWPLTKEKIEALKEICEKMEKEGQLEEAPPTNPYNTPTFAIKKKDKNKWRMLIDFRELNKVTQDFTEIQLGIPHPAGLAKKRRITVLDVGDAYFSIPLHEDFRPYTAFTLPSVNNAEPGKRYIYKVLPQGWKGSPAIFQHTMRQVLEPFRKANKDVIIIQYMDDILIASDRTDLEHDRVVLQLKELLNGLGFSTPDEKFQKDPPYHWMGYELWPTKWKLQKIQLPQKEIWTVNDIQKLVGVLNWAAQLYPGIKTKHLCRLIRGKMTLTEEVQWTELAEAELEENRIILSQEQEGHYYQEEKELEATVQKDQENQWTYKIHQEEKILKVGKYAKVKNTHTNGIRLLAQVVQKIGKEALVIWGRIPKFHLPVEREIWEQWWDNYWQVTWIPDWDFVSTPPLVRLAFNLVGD
Procedure: as §1

Ribonuclease HI = molecular target: T4, Ribonuclease HI (Escherichia coli (strain K12), UniProt P0A7Y4)
T4 sequence (P0A7Y4 whole entry): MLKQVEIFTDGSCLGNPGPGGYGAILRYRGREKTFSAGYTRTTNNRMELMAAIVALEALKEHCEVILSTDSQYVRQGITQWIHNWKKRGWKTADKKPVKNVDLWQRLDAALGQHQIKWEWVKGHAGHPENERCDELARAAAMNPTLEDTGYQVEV
Procedure: as §1

| SMILES | pIC50 (Ribonuclease H1) | pIC50 [1] | pIC50 [2] | pIC50 (Ribonuclease HI) |
| --- | --- | --- | --- | --- |
| Cc1sc(NC(=O)c2ccco2)c(C(N)=O)c1C [vinylogous urea, NSC727448] | 4.54 | 5.49 | 5.30 | 4.14 |
| NC(=O)c1c(N)sc2c1CCCCC2 [SMR000066289] | 4.97 | 5.70 | 5.60 | 4.00 |
